Source: the SangsterLogP compilation

Row | logP | Structure (SMILES)
1 | 6.06 | Clc1ccc(Oc2c(Cl)ccc(Cl)c2Cl)c(Cl)c1
2 | 4.93 | Clc1ccc(Oc2ccccc2)c(Cl)c1
3 | 5.21 | Clc1cc(Cl)cc(Oc2ccccc2)c1
4 | 5.65 | Clc1cccc(Oc2ccc(Cl)cc2Cl)c1
5 | 5.55 | Clc1ccc(Oc2ccccc2)c(Cl)c1Cl
6 | 8.07 | Clc1cc(Oc2c(Cl)c(Cl)c(Cl)c(Cl)c2Cl)c(Cl)c(Cl)c1Cl
7 | 5.13 | Clc1ccc(Oc2cccc(Cl)c2)cc1
8 | 5.88 | Clc1ccc(Oc2c(Cl)ccc(Cl)c2Cl)cc1
9 | 6.07 | Clc1cccc(Oc2ccc(Cl)c(Cl)c2Cl)c1
10 | 5.62 | Clc1cc(Cl)c(Cl)c(Oc2ccccc2)c1
11 | 6.47 | Clc1cc(Cl)c(Oc2c(Cl)ccc(Cl)c2Cl)cc1Cl
12 | 6.66 | Clc1cc(Cl)cc(Oc2cc(Cl)c(Cl)cc2Cl)c1
13 | 7.28 | Clc1ccc(Oc2cc(Cl)c(Cl)c(Cl)c2Cl)c(Cl)c1Cl
14 | 7.31 | Clc1cc(Cl)c(Oc2cc(Cl)c(Cl)c(Cl)c2Cl)c(Cl)c1
15 | 7.63 | Clc1cc(Oc2c(Cl)c(Cl)cc(Cl)c2Cl)c(Cl)c(Cl)c1Cl
16 | 6.38 | Clc1ccc(Oc2cc(Cl)c(Cl)cc2Cl)c(Cl)c1
17 | 5.7 | Clc1cc(Oc2ccccc2)cc(Cl)c1Cl
18 | 6.28 | Clc1ccc(Oc2ccc(Cl)c(Cl)c2Cl)c(Cl)c1
19 | 5.92 | Clc1ccc(Oc2c(Cl)cc(Cl)cc2Cl)cc1
20 | 7.46 | Clc1cc(Cl)c(Oc2cc(Cl)c(Cl)c(Cl)c2Cl)cc1Cl
21 | 6.14 | Clc1ccc(Oc2ccc(Cl)c(Cl)c2Cl)cc1
22 | 6.65 | Clc1ccc(Oc2c(Cl)ccc(Cl)c2Cl)c(Cl)c1Cl
23 | 5.98 | Clc1cc(Cl)c(Oc2c(Cl)cccc2Cl)cc1Cl
24 | 4.99 | Clc1ccc(Oc2ccccc2)cc1Cl
25 | 7.31 | Clc1ccc(Oc2c(Cl)c(Cl)c(Cl)c(Cl)c2Cl)cc1Cl

Row | logP | Structure (SMILES)
26 | 6.82 | Clc1ccc(Oc2ccc(Cl)c(Cl)c2Cl)c(Cl)c1Cl
27 | 7.11 | Clc1cc(Cl)c(Oc2cc(Cl)c(Cl)c(Cl)c2)cc1Cl
28 | 6.13 | Clc1cc(Cl)cc(Oc2ccc(Cl)cc2Cl)c1
29 | 6.44 | Clc1cc(Cl)c(Oc2ccc(Cl)c(Cl)c2)c(Cl)c1
30 | 5.25 | Clc1ccc(Oc2ccc(Cl)cc2)cc1
31 | 7.01 | Clc1cc(Cl)c(Oc2ccc(Cl)c(Cl)c2Cl)cc1Cl
32 | 6.3 | Clc1ccc(Oc2cc(Cl)c(Cl)c(Cl)c2)cc1
33 | 6.99 | Clc1cc(Oc2ccc(Cl)c(Cl)c2Cl)cc(Cl)c1Cl
34 | 4.96 | Clc1ccc(Oc2ccccc2Cl)c(Cl)c1
35 | 7.01 | Clc1cc(Cl)c(Cl)c(Oc2ccc(Cl)c(Cl)c2Cl)c1
36 | 7.13 | Clc1cc(Cl)c(Oc2c(Cl)c(Cl)cc(Cl)c2Cl)cc1Cl
37 | 6.95 | Clc1ccc(Oc2c(Cl)c(Cl)c(Cl)c(Cl)c2Cl)cc1
38 | 6.72 | Clc1cc(Cl)c(Oc2cc(Cl)c(Cl)cc2Cl)cc1Cl
39 | 5.66 | Clc1ccc(Oc2cc(Cl)ccc2Cl)cc1
40 | 6.3 | Clc1cccc(Oc2ccc(Cl)c(Cl)c2Cl)c1Cl
41 | 5.97 | Clc1cc(Cl)c(Oc2ccccc2Cl)cc1Cl
42 | 6.11 | Clc1ccc(Oc2c(Cl)cccc2Cl)c(Cl)c1Cl
43 | 5.99 | Clc1ccc(Oc2cc(Cl)c(Cl)cc2Cl)cc1
44 | 5.7 | Clc1ccc(Oc2c(Cl)cccc2Cl)cc1Cl
45 | 6.11 | Clc1ccc(Cl)c(Oc2ccc(Cl)c(Cl)c2)c1
46 | 5.32 | Clc1cc(Cl)c(Oc2ccccc2)c(Cl)c1
47 | 6.72 | Clc1ccc(Oc2cc(Cl)c(Cl)c(Cl)c2Cl)c(Cl)c1
48 | 6.6 | Clc1ccc(Oc2cc(Cl)c(Cl)cc2Cl)cc1Cl
49 | 5.5 | Clc1ccc(Oc2ccccc2Cl)cc1Cl
50 | 5.88 | Clc1ccc(Oc2ccc(Cl)c(Cl)c2)cc1

Row | logP | Structure (SMILES)
51 | 6.78 | Clc1ccc(Oc2c(Cl)c(Cl)cc(Cl)c2Cl)cc1Cl
52 | 5.95 | Clc1ccc(Oc2ccc(Cl)cc2Cl)c(Cl)c1
53 | 6.61 | Clc1ccc(Oc2cc(Cl)c(Cl)c(Cl)c2Cl)cc1
54 | 5.74 | Clc1cccc(Oc2ccc(Cl)c(Cl)c2)c1
55 | 8.16 | Clc1c(Cl)c(Cl)c(Oc2c(Cl)c(Cl)c(Cl)c(Cl)c2Cl)c(Cl)c1Cl
56 | 6.98 | Clc1cc(Oc2c(Cl)ccc(Cl)c2Cl)c(Cl)c(Cl)c1Cl
57 | 5.63 | Clc1ccc(Oc2cccc(Cl)c2Cl)cc1
58 | 5 | Clc1cccc(Oc2ccccc2)c1Cl
59 | 7.81 | Clc1cc(Cl)c(Oc2c(Cl)c(Cl)c(Cl)c(Cl)c2Cl)cc1Cl
60 | 5.03 | Clc1ccc(Oc2ccccc2Cl)cc1
61 | 6.84 | Clc1ccc(Oc2c(Cl)cc(Cl)c(Cl)c2Cl)c(Cl)c1
62 | 6.52 | Clc1cc(Cl)c(Cl)c(Oc2ccc(Cl)c(Cl)c2)c1
63 | 6.22 | Clc1cc(Cl)cc(Oc2ccc(Cl)c(Cl)c2)c1
64 | 5.88 | Clc1ccc(Oc2cccc(Cl)c2Cl)c(Cl)c1
65 | 6.76 | Clc1ccc(Oc2c(Cl)c(Cl)cc(Cl)c2Cl)c(Cl)c1
66 | 7.14 | Clc1ccc(Oc2c(Cl)c(Cl)cc(Cl)c2Cl)c(Cl)c1Cl
67 | 6.49 | Clc1cc(Cl)c(Oc2cc(Cl)c(Cl)cc2Cl)c(Cl)c1
68 | 6.21 | Clc1ccc(Oc2cc(Cl)cc(Cl)c2Cl)cc1
69 | 6.22 | Clc1ccc(Cl)c(Oc2cc(Cl)c(Cl)cc2Cl)c1
70 | 7.84 | Clc1ccc(Oc2c(Cl)c(Cl)c(Cl)c(Cl)c2Cl)c(Cl)c1Cl
71 | 4.64 | Clc1cccc(Cl)c1Oc1ccccc1
72 | 6.83 | Clc1ccc(Oc2cc(Cl)c(Cl)c(Cl)c2)cc1Cl
73 | 6.58 | Clc1cc(Cl)cc(Oc2ccc(Cl)c(Cl)c2Cl)c1
74 | 6.63 | Clc1ccc(Oc2cc(Cl)c(Cl)c(Cl)c2)c(Cl)c1
75 | 6.51 | Clc1ccc(Cl)c(Oc2ccc(Cl)c(Cl)c2Cl)c1

Row | logP | Structure (SMILES)
76 | 5.99 | Clc1ccc(Oc2cccc(Cl)c2Cl)cc1Cl
77 | 7.78 | Clc1cc(Oc2cc(Cl)c(Cl)c(Cl)c2Cl)c(Cl)c(Cl)c1Cl
78 | 5.72 | Clc1ccccc1Oc1ccc(Cl)c(Cl)c1Cl
79 | 6.31 | Clc1ccc(Oc2c(Cl)ccc(Cl)c2Cl)cc1Cl
80 | 7.07 | Clc1ccc(Oc2c(Cl)cc(Cl)c(Cl)c2Cl)cc1Cl
81 | 6.11 | Clc1ccc(Oc2c(Cl)cc(Cl)cc2Cl)c(Cl)c1
82 | 5.3 | Clc1ccc(Oc2c(Cl)cccc2Cl)cc1
83 | 6.47 | Clc1ccc(Oc2c(Cl)cc(Cl)c(Cl)c2Cl)cc1
84 | 7.55 | Clc1cc(Oc2cc(Cl)c(Cl)c(Cl)c2Cl)cc(Cl)c1Cl
85 | 6.22 | Clc1cc(Cl)c(Oc2cccc(Cl)c2Cl)cc1Cl
86 | 5.82 | Clc1cc(Cl)c(Cl)c(Oc2ccccc2)c1Cl
87 | 6.51 | Clc1ccc(Oc2ccc(Cl)c(Cl)c2Cl)cc1Cl
88 | 4.45 | Clc1ccccc1Oc1ccccc1
89 | 4.75 | Clc1cccc(Oc2ccccc2)c1
90 | 5.77 | Clc1ccc(Oc2cc(Cl)cc(Cl)c2)cc1
91 | 6.76 | Clc1cc(Cl)c(Cl)c(Oc2cc(Cl)c(Cl)cc2Cl)c1
92 | 6.14 | Clc1cccc(Oc2cc(Cl)c(Cl)cc2Cl)c1
93 | 5.13 | Clc1ccc(Cl)c(Oc2ccccc2)c1
94 | 6.41 | Clc1ccc(Oc2c(Cl)c(Cl)cc(Cl)c2Cl)cc1
95 | 5.35 | Clc1ccc(Cl)c(Oc2ccccc2)c1Cl
96 | 5.78 | Clc1ccc(Oc2cc(Cl)ccc2Cl)c(Cl)c1
97 | 6.13 | Clc1ccc(Oc2ccc(Cl)c(Cl)c2)c(Cl)c1
98 | 5.53 | Clc1ccc(Oc2ccc(Cl)cc2Cl)cc1

Row | Structure (SMILES) | logP
99 | Clc1ccc(Oc2ccccc2)cc1 | 4.7
100 | Clc1ccc(Oc2ccc(Cl)c(Cl)c2)cc1Cl | 6.36
